From PMC5256054 (Iranian Journal of Parasitology, 2016)

Assays:
[1] = system: P. falciparum strain NF54; conditions: read-out: IC50, P. falciparum strain NF54; erythrocytic stages in vitro; ref [8]; cited from earlier work
P. falciparum strain K1 = conditions: read-out: IC50, P. falciparum strain K1; erythrocytic stages in vitro; ref [8]; cited from earlier work
[2] = system: P. falciparum 3D7 chloroquine (CQ) sensitive strain; test: In vitro antiplasmodial test, Giemsa-stained smear parasitemia count; type: cell-based; conditions: Plasmodium falciparum, 3D7, 24 h, read-out: P. falciparum IC50

Q: With COc1cc(C=C2Oc3cc(OC(C)=O)cc(OC(C)=O)c3C2=O)cc(OC)c1OC(C)=O [4,6,4′-triacetyl-3′,5′-dimethoxy-2-aurone] as the compound, how does the IC50 [1] read?
A: 180 nM

Q: And the IC50 (P. falciparum strain K1)?
A: 7 nM

Q: With CCN(CC)CCCC(C)Nc1ccnc2cc(Cl)ccc12 (stereo not drawn) [CQ, Chloroquine] as the compound, how does the IC50 [2] read?
A: 775 nM
